This is an account of results in article PMC6669564, “Cytotoxic Sesquiterpenoid Quinones and Quinols, and an 11-Membered Heterocycle, Kauamide, from the Hawaiian Marine Sponge Dactylospongia elegans” (Marine Drugs, 2019).

This assay has as its target β-secretase 1 (BACE1) (Homo sapiens, UniProt P56817). Nature of the assay: HitHunter BACE1 enzyme fragment complementation chemiluminescence assay, […] h incubation, dose response. It is filed as biochemical.

SMILES strings stand for the structures.

Chain of β-secretase 1 (BACE1) (P56817 46-457): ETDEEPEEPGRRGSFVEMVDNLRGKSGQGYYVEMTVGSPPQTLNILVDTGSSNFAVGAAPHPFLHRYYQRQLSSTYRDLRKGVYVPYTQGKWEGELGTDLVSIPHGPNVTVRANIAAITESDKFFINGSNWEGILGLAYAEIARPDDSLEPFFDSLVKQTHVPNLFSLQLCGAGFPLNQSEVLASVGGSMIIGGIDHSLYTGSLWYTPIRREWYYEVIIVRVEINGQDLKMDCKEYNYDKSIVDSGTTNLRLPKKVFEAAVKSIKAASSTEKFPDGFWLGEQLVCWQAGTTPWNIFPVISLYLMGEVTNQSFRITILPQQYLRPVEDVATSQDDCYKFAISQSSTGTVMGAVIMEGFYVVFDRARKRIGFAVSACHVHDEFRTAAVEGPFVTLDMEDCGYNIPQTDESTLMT

With `C=C1CCC[C@H]2[C@](C)(CC3=C(O)C(=O)C=C(OC)C3=O)[C@@H](C)CC[C@]12C` [compound 1, ilimaquinone], half-maximal inhibition (IC50) was put at 65 µM.

Turning to `C=C1CCC[C@H]2[C@](C)(CC3=C(O)C(=O)C=C(N)C3=O)[C@@H](C)CC[C@]12C` [compound 3, smenospongine], the half-maximal inhibitory concentration (IC50) came to 78 µM.
